Reference: ChEMBL document CHEMBL3797136, “Insights into the structure-activity relationship of the anticancer compound ZJ-101: A critical role played by the cyclohexene ring” (Bioorg Med Chem Lett, 2016)

How the values were obtained:
Format in all cases: functional, cell-based
[1] = system: MDA-MB-231; experiment: Antiproliferative activity against human MDA-MB-231 cells assessed as cell viability by Alamar Blue assay
[2] = Antiproliferative activity against human SF295 cells assessed as cell viability by Alamar Blue assay; details: SF-295
[3] = Antiproliferative activity against human […] assessed as cell viability by Alamar Blue assay
[4] = system: RKO; experiment: Antiproliferative activity against human RKO cells assessed as cell viability by Alamar Blue assay

| SMILES | IC50 [1] [nM] | IC50 [2] [nM] | IC50 [3] [nM] | IC50 [4] [nM] |
| --- | --- | --- | --- | --- |
| CC(=O)N[C@H](C)[C@@H](O)[C@@H](C)[C@@H]1OC(=O)/C=C/C=C(C)\C=C\[C@]2(C)CCC=C[C@@H]2/C=C(C)/C=C/[C@H]1C | 42.8 | 66.1 | 36.2 | 154 |
| CC(=O)N[C@H](C)[C@@H](O)[C@@H](C)[C@@H]1OC(=O)/C=C/C=C(C)\C=C\c2ccccc2/C=C(C)/C=C/[C@H]1C | > 5000 | > 5000 | 2200 | > 5000 |
